Assay results published in ChEMBL document CHEMBL3045111, “Synthesis and herbicidal activities of novel 3-(substituted benzyloxy or phenoxy)-6-methyl-4-(3-trifluoromethylphenyl)pyridazine derivatives” (2012).
Activity calls are given as the source filed them. The rule behind the calls is not given here.

Experiments:
[1] = tested on: Brassica rapa subsp. oleifera; assay: Post-emergence herbicidal activity against one-leaf stage Brassica rapa subsp. oleifera under greenhouse condition at 150 g /ha measured after 24 days by spray method; type: functional; conditions: 576 h, read-out: GI
Digitaria [2] = assay: Pre-emergence herbicidal activity against Digitaria adscendens under greenhouse condition at 750 g /ha measured after 24 days by spray method; type: functional; conditions: in Digitaria adscendens, 576 h, read-out: GI
[3] = tested on: Brassica rapa subsp. oleifera; assay: Post-emergence herbicidal activity against one-leaf stage Brassica rapa subsp. oleifera under greenhouse condition at 600 g /ha measured after 24 days by spray method; type: functional; conditions: 576 h, read-out: GI
[4] = tested on: Brassica rapa subsp. oleifera; assay: Post-emergence herbicidal activity against one-leaf stage Brassica rapa subsp. oleifera under greenhouse condition assessed as complete bleaching of leaves at 150 g /ha measured after 24 days by spray method; type: functional, organism-based
Digitaria [5] = assay: Post-emergence herbicidal activity against one-leaf stage of Digitaria adscendens under greenhouse condition at 750 g /ha measured after 24 days by spray method; type: functional; conditions: in Digitaria adscendens, 576 h, read-out: GI
Amaranthus retroflexus [6] = assay: Pre-emergence herbicidal activity against Amaranthus retroflexus under greenhouse condition at 750 g /ha measured after 24 days by spray method; type: functional; conditions: 576 h, read-out: GI
Amaranthus retroflexus [7] = assay: Post-emergence herbicidal activity against one-leaf stage of Amaranthus retroflexus under greenhouse condition at 750 g /ha measured after 24 days by spray method; type: functional; conditions: 576 h, read-out: GI
[8] = tested on: Brassica rapa subsp. oleifera; assay: Pre-emergence herbicidal activity against Brassica rapa subsp. oleifera under greenhouse condition at 750 g /ha measured after 24 days by spray method; type: functional; conditions: 576 h, read-out: GI
[9] = tested on: Brassica rapa subsp. oleifera; assay: Post-emergence herbicidal activity against one-leaf stage Brassica rapa subsp. oleifera under greenhouse condition assessed as complete bleaching of leaves at 300 g /ha measured after 24 days by spray method; type: functional, organism-based
[10] = tested on: Brassica rapa subsp. oleifera; assay: Post-emergence herbicidal activity against one-leaf stage Brassica rapa subsp. oleifera under greenhouse condition at 750 g /ha measured after 24 days by spray method; type: functional; conditions: 576 h, read-out: GI
[11] = tested on: Brassica rapa subsp. oleifera; assay: Post-emergence herbicidal activity against one-leaf stage Brassica rapa subsp. oleifera under greenhouse condition at 300 g /ha measured after 24 days by spray method; type: functional; conditions: 576 h, read-out: GI
Echinochloa crus-galli [12] = assay: Pre-emergence herbicidal activity against Echinochloa crus-galli (barnyard grass) under greenhouse condition at 750 g /ha measured after 24 days by spray method; type: functional; conditions: 576 h, read-out: GI
Echinochloa crus-galli [13] = assay: Post-emergence herbicidal activity against one-leaf stage of Echinochloa crus-galli (barnyard grass) under greenhouse condition at 750 g /ha measured after 24 days by spray method; type: functional; conditions: 576 h, read-out: GI
[14] = tested on: Brassica rapa subsp. oleifera; assay: Post-emergence herbicidal activity against one-leaf stage Brassica rapa subsp. oleifera under greenhouse condition assessed as complete bleaching of leaves at 600 g /ha measured after 24 days by spray method; type: functional, organism-based
Spirodela polyrhiza [15] = assay: Bleaching herbicidal activity in Spirodela polyrhiza fronds cultured in compound-containing in medium assessed as chlorophyll inhibition at 10 ug/ml after 7 days; type: functional; conditions: 168 h
Spirodela polyrhiza [16] = assay: Bleaching herbicidal activity in Spirodela polyrhiza fronds cultured in compound-containing in medium assessed as chlorophyll inhibition at 1 ug/ml after 7 days; type: functional; conditions: 168 h
[17] = tested on: Brassica rapa subsp. oleifera; assay: Post-emergence herbicidal activity against one-leaf stage Brassica rapa subsp. oleifera under greenhouse condition assessed as complete bleaching of leaves at 75 g /ha measured after 24 days by spray method; type: functional, organism-based
[18] = tested on: Brassica rapa subsp. oleifera; assay: Post-emergence herbicidal activity against one-leaf stage Brassica rapa subsp. oleifera under greenhouse condition at 75 g /ha measured after 24 days by spray method; type: functional; conditions: 576 h, read-out: GI

Row | SMILES | inhibition of growth at 150 g/ha [1] [%] | inhibition of growth at 750 g/ha (Digitaria [2]) [%] | inhibition of growth at 600 g/ha [3] [%] | Activity [4] | inhibition of growth at 750 g/ha (Digitaria [5]) [%] | inhibition of growth at 750 g/ha (Amaranthus retroflexus [6]) [%] | inhibition of growth at 750 g/ha (Amaranthus retroflexus [7]) [%] | inhibition of growth at 750 g/ha [8] [%] | Activity [9] | inhibition of growth at 750 g/ha [10] [%] | inhibition of growth at 300 g/ha [11] [%] | inhibition of growth at 750 g/ha (Echinochloa crus-galli [12]) [%] | inhibition of growth at 750 g/ha (Echinochloa crus-galli [13]) [%] | Activity [14] | inhibition at 10 µg/mL (Spirodela polyrhiza [15]) [%] | inhibition at 1 µg/mL (Spirodela polyrhiza [16]) [%] | Activity [17] | inhibition of growth at 75 g/ha [18] [%]
1 | Cc1cc(-c2cccc(C(F)(F)F)c2)c(OCc2ccccc2Cl)nn1 | 57 | 26 | 97 | Active | 26 | 40 | 47 | 52 | Active | 90 | 96 | 0 | 16 | Active | 93 | 59 | – | –
2 | Cc1cc(-c2cccc(C(F)(F)F)c2)c(OCc2ccccc2C(F)(F)F)nn1 | 38 | 2 | 92 | Active | 8 | 16 | 46 | 28 | Active | 93 | 49 | 17 | 14 | Active | 76 | 73 | – | –
3 | Cc1cc(-c2cccc(C(F)(F)F)c2)c(OCc2cccc(F)c2)nn1 | 30 | 10 | 66 | Active | 0 | 9 | 47 | 0 | Active | 93 | 47 | 18 | 14 | Active | 96 | 89 | – | –
4 | COc1cccc(COc2nnc(C)cc2-c2cccc(C(F)(F)F)c2)c1 | – | 0 | – | – | 0 | 0 | 12 | 0 | – | 9 | – | 20 | 5 | – | 23 | 5 | – | –
5 | Cc1cc(-c2cccc(C(F)(F)F)c2)c(Oc2ccc(C(C)(C)C)cc2)nn1 | – | 4 | – | – | 0 | 0 | 38 | 1 | – | 44 | – | 0 | 33 | – | 35 | 0 | – | –
6 | Cc1ccc(COc2nnc(C)cc2-c2cccc(C(F)(F)F)c2)cc1 | – | 4 | – | – | 0 | 9 | 22 | 0 | – | 41 | – | 28 | 6 | – | 31 | 20 | – | –
7 | Cc1cc(-c2cccc(C(F)(F)F)c2)c(OCc2ccccc2Br)nn1 | 49 | 25 | 85 | Active | 3 | 21 | 54 | 8 | Active | 91 | 73 | 1 | 0 | Active | 100 | 93 | – | –
8 | Cc1cc(-c2cccc(C(F)(F)F)c2)c(OCc2ccc(Cl)cc2Cl)nn1 | – | 0 | – | – | 0 | 3 | 35 | 2 | – | 43 | – | 18 | 0 | – | 44 | 38 | – | –
9 | Cc1cc(-c2cccc(C(F)(F)F)c2)c(OCc2ccccc2F)nn1 | – | 10 | – | – | 0 | 4 | 39 | 28 | – | 79 | – | 13 | 19 | – | 71 | 65 | – | –
10 | Cc1cc(-c2cccc(C(F)(F)F)c2)c(OCc2ccc(Br)cc2)nn1 | – | 0 | – | – | 0 | 0 | 23 | 0 | – | 20 | – | 4 | 15 | – | 27 | 14 | – | –
11 | Cc1cc(-c2cccc(C(F)(F)F)c2)c(OCc2cccc(Br)c2)nn1 | – | 0 | – | – | 3 | 0 | 39 | 0 | – | 65 | – | 7 | 4 | – | 83 | 66 | – | –
12 | Cc1cc(-c2cccc(C(F)(F)F)c2)c(Oc2c(C)cccc2C)nn1 | – | 13 | – | – | 0 | 19 | 34 | 0 | – | 0 | – | 2 | 0 | – | 9 | 8 | – | –
13 | Cc1cc(-c2cccc(C(F)(F)F)c2)c(OCc2ccccc2C)nn1 | 79 | 19 | 95 | Active | 7 | 36 | 29 | 58 | Active | 97 | 86 | 2 | 55 | Active | 86 | 62 | Active | 44
14 | Cc1cc(-c2cccc(C(F)(F)F)c2)c(OCc2ccccc2)nn1 | 62 | 7 | 92 | Active | 0 | 38 | 50 | 55 | Active | 94 | 86 | 27 | 29 | Active | 82 | 62 | – | –
